# Measured values as given in patent US12415834B2, “GhR-binding peptide and composition comprising same” (priority 2021, dated 2025).
# Starred links: 1 amine or outer side, 2 acyl side, 3 side chain; linkers in the order of their positions; H or OH if unused. Positions of bridges follow the written chain, without caps; N, C: chain ends. Non-standard residues stand in square brackets, D forms with d. Residues, ends and D or L forms follow the SMILES beside them. Groups on a side chain read outwards from the residue. *: point of attachment. X15 = NC(=O)[C@H](CCCCN*)NC(=O)COCCOCCNC(=O)COCCOCCNC(=O)CC[C@H](NC(=O)CC[C@H](NC(=O)CCCCCCCCCCCCCCCC(=O)O)C(=O)O)C(=O)O; X12 = NC(=O)[C@H](CCCCN*)NC(=O)CC[C@H](NC(=O)CC[C@H](NC(=O)CCCc1ccc(-c2ccccc2)cc1)C(=O)O)C(=O)O; X19 = Cc1ccc(CCCC(=O)N[C@@H](CCC(=O)N[C@@H](CCC(=O)N[C@@H](CCCCN*)C(N)=O)C(=O)O)C(=O)O)cc1; X10 = NC(=O)[C@H](CCCCN*)NC(=O)CC[C@H](NC(=O)CC[C@H](NC(=O)CCCc1ccc(I)cc1)C(=O)O)C(=O)O; X18 = NC(=O)[C@H](CCCCN*)NC(=O)CC[C@H](NC(=O)CC[C@H](NC(=O)CCCc1ccccc1)C(=O)O)C(=O)O; Trp(1-CH2CO) = O=C([C@H](Cc1cn(CC(=O)[*:3])c2ccccc12)N[*:1])[*:2]; Trp(5-OMe) = COc1ccc2[nH]cc(C[C@H](N)C(=O)O)c2c1; Butanoyl(4-(4-I-phenyl)) = O=C(CCCc1ccc(I)cc1)*; Trp(5-OH) = N[C@@H](Cc1c[nH]c2ccc(O)cc12)C(=O)O; Phe(4-COOH) = N[C@@H](Cc1ccc(C(=O)O)cc1)C(=O)O; Piperazinyl(4-CH2COOH) = O=C(O)CN1CCN(*)CC1; γGlu = O=C(O)[C@H](CCC(=O)[*:2])N[*:1]; X2 = O=C([C@@H]1CCCN1[*:2])[*:1]; 4Pal = N[C@@H](Cc1ccncc1)C(=O)O; NMeK = CN[C@@H](CCCCN)C(=O)O; Aib = CC(C)(N)C(=O)O; CO = O=C([*:1])[*:2]
# Target: T1, Recombinant human GhR-Fc protein (Homo sapiens, UniProt P10912)
# T1 construct: purchased R&D Systems
# T1 sequence (P10912 with tags, fused parts or gaps limits assumed): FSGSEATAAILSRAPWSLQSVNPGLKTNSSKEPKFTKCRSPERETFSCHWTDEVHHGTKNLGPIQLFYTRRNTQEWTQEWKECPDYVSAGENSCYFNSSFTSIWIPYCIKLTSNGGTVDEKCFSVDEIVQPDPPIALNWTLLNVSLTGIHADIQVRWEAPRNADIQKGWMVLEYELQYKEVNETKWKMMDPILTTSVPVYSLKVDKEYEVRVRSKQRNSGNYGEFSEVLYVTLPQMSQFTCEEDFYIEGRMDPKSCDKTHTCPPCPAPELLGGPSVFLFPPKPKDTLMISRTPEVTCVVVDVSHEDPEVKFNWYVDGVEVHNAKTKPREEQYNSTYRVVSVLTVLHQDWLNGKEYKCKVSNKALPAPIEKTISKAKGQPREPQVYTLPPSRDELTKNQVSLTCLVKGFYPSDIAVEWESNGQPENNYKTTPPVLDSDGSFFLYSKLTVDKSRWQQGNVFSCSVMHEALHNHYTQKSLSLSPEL
# Test: SPR binding assay (Biacore T200, single-cycle kinetics) of peptides against immobilized human GhR-Fc
# Conditions: not given
# Outline: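 Human GhR-Fc amine-coupled to a CM5 chip at pH 4.0; running buffer HBS-EP with 1% DMSO. Peptides measured by single-cycle kinetics on Biacore T200, with solvent correction and baseline subtraction. KD calculated from fitted ka and kd.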
row,SMILES,Kd
1,CC(C)[C@@H]1NC(=O)[C@H](C(C)C)NC(=O)[C@@H]2CCCCNC(=O)Cn3cc(c4ccccc43)C[C@H](NC(=O)[C@H](CC(N)=O)NC(=O)[C@H](CO)NC1=O)C(=O)N[C@@H](Cc1ccc(C(=O)O)cc1)C(=O)N[C@@H](CCCCN)C(=O)N[C@@H](Cc1c[nH]c3ccc(O)cc13)C(=O)NC(C)(C)C(=O)N[C@@H](C(C)C)C(=O)N[C@H](C(=O)NCCCC[C@H](NC(=O)CC[C@H](NC(=O)CC[C@H](NC(=O)CCCc1ccc(-c3ccccc3)cc1)C(=O)O)C(=O)O)C(N)=O)CSCC(=O)N[C@@H](Cc1ccc(C(=O)O)cc1)C(=O)N2C [Compound 15] ({CH2CO}-[Phe(4-COOH)][NMeK]VVSN[Trp(1-CH2CO)][Phe(4-COOH)]K[Trp(5-OH)][Aib]VC-X12; lactam 2-7; thioether N-13),1.61 nM

# Same assay, conditions: SPR, hGhR; Table 1 bicyclic peptides; KD calculated from ka and kd; read-out: KD
row,Kd,SMILES
1,2.03 nM,CC(C)[C@@H]1NC(=O)[C@H](C(C)C)NC(=O)[C@@H]2CCCCNC(=O)Cn3cc(c4ccccc43)C[C@H](NC(=O)[C@H](CC(N)=O)NC(=O)[C@H](CO)NC1=O)C(=O)N[C@@H](Cc1ccc(C(=O)O)cc1)C(=O)N[C@@H](CCCCN)C(=O)N[C@@H](Cc1c[nH]c3ccc(O)cc13)C(=O)NC(C)(C)C(=O)N[C@@H](C(C)C)C(=O)N[C@H](C(=O)NCCCC[C@H](NC(=O)CC[C@H](NC(=O)CC[C@H](NC(=O)CCCc1ccccc1)C(=O)O)C(=O)O)C(N)=O)CSCC(=O)N[C@@H](Cc1ccc(C(=O)O)cc1)C(=O)N2C [Compound 10] ({CH2CO}-[Phe(4-COOH)][NMeK]VVSN[Trp(1-CH2CO)][Phe(4-COOH)]K[Trp(5-OH)][Aib]VC-X18; lactam 2-7; thioether N-13)
2,1.07 nM,CC(C)[C@@H]1NC(=O)[C@H](C(C)C)NC(=O)[C@@H]2CCCCNC(=O)[C@@H]3CCCN3C(=O)Cn3cc(c4ccccc43)C[C@H](NC(=O)[C@H](CC(N)=O)NC(=O)[C@H](CO)NC1=O)C(=O)N[C@@H](Cc1ccc(O)cc1)C(=O)N[C@@H](CCCCN)C(=O)N[C@@H](Cc1c[nH]c3ccc(O)cc13)C(=O)NC(C)(C)C(=O)N[C@@H](C(C)C)C(=O)N[C@H](C(=O)NCC(N)=O)CSCC(=O)N[C@@H](Cc1ccc(O)cc1)C(=O)N2C [Compound 4] ({CH2CO}-Y[NMeK]VVSN[Trp(1-CH2CO)]YK[Trp(5-OH)][Aib]VCG-NH2; linker 2-7 via X2; thioether N-13)
3,1.07 nM,CC(C)[C@@H]1NC(=O)[C@H](C(C)C)NC(=O)[C@@H]2CCCCNC(=O)Cn3cc(c4ccccc43)C[C@H](NC(=O)[C@H](CC(N)=O)NC(=O)[C@H](CO)NC1=O)C(=O)N[C@@H](Cc1ccc(O)cc1)C(=O)N[C@@H](CCCCN)C(=O)N[C@@H](Cc1c[nH]c3ccc(O)cc13)C(=O)NC(C)(C)C(=O)N[C@@H](C(C)C)C(=O)N[C@H](C(=O)NCCCC[C@H](NC(=O)CC[C@H](NC(=O)CC[C@H](NC(=O)CCCc1ccc(I)cc1)C(=O)O)C(=O)O)C(N)=O)CSCC(=O)N[C@@H](Cc1ccc(C(=O)O)cc1)C(=O)N2C [Compound 21] ({CH2CO}-[Phe(4-COOH)][NMeK]VVSN[Trp(1-CH2CO)]YK[Trp(5-OH)][Aib]VC-X10; lactam 2-7; thioether N-13)
4,3.33 nM,CC(C)[C@@H]1NC(=O)[C@H](C(C)C)NC(=O)[C@@H]2CCCCNC(=O)Cn3cc(c4ccccc43)C[C@H](NC(=O)[C@H](CC(N)=O)NC(=O)[C@H](CO)NC1=O)C(=O)N[C@@H](Cc1ccc(C(=O)O)cc1)C(=O)N[C@@H](CCCCN)C(=O)N[C@@H](Cc1c[nH]c3ccc(O)cc13)C(=O)NC(C)(C)C(=O)N[C@@H](C(C)C)C(=O)N[C@H](C(=O)NCCCC[C@H](NC(=O)COCCOCCNC(=O)COCCOCCNC(=O)CC[C@H](NC(=O)CC[C@H](NC(=O)CCCCCCCCCCCCCCCC(=O)O)C(=O)O)C(=O)O)C(N)=O)CSCC(=O)N[C@@H](Cc1ccc(C(=O)O)cc1)C(=O)N2C [Compound 65] ({CH2CO}-[Phe(4-COOH)][NMeK]VVSN[Trp(1-CH2CO)][Phe(4-COOH)]K[Trp(5-OH)][Aib]VC-X15; lactam 2-7; thioether N-13)
5,1.95 nM,Cc1ccc(CCCC(=O)N[C@@H](CCC(=O)N[C@@H](CCC(=O)N[C@@H](CCCCNC(=O)[C@@H]2CSCC(=O)N[C@@H](Cc3ccc(C(=O)O)cc3)C(=O)N(C)[C@H]3CCCCNC(=O)Cn4cc(c5ccccc54)C[C@H](NC(=O)[C@H](CC(N)=O)NC(=O)[C@H](CO)NC(=O)[C@H](C(C)C)NC(=O)[C@H](C(C)C)NC3=O)C(=O)N[C@@H](Cc3ccc(C(=O)O)cc3)C(=O)N[C@@H](CCCCN)C(=O)N[C@@H](Cc3c[nH]c4ccc(O)cc34)C(=O)NC(C)(C)C(=O)N[C@@H](C(C)C)C(=O)N2)C(N)=O)C(=O)O)C(=O)O)cc1 [Compound 12] ({CH2CO}-[Phe(4-COOH)][NMeK]VVSN[Trp(1-CH2CO)][Phe(4-COOH)]K[Trp(5-OH)][Aib]VC-X19; lactam 2-7; thioether N-13)

# Same assay, conditions: SPR, hGhR; Table 2 monocyclic peptides; KD calculated from ka and kd; read-out: KD
row,Kd,SMILES
1,2.96 nM,COc1ccc2[nH]cc(C[C@@H]3NC(=O)[C@H](CC(N)=O)NC(=O)[C@H](CO)NC(=O)[C@H](C(C)C)NC(=O)[C@H](C(C)C)NC(=O)[C@H](CCCCNC(=O)CC[C@H](NC(=O)CC[C@H](NC(=O)CCCc4ccc(I)cc4)C(=O)O)C(=O)O)N(C)C(=O)[C@H](Cc4ccc(C(=O)O)cc4)NC(=O)CSC[C@@H](C(N)=O)NC(=O)[C@H](C(C)C)NC(=O)C(C)(C)NC(=O)[C@H](Cc4c[nH]c5ccc(O)cc45)NC(=O)[C@H](CCCCN)NC(=O)[C@H](Cc4ccc(C(=O)O)cc4)NC3=O)c2c1 [Compound 40] ({CH2CO}-[Phe(4-COOH)][NMeK]([γGlu-γGlu-Butanoyl(4-(4-I-phenyl))])VVSN[Trp(5-OMe)][Phe(4-COOH)]K[Trp(5-OH)][Aib]VC-NH2; thioether N-13)
2,9.67 nM,COc1ccc2[nH]cc(C[C@@H]3NC(=O)[C@H](CC(N)=O)NC(=O)[C@H](CO)NC(=O)[C@H](C(C)C)NC(=O)[C@H](C(C)C)NC(=O)[C@H](CCCCNC(=O)CC[C@H](NC(=O)CCCc4ccc(I)cc4)C(=O)O)N(C)C(=O)[C@H](Cc4ccc(O)cc4)NC(=O)CSC[C@@H](C(N)=O)NC(=O)[C@H](C(C)C)NC(=O)C(C)(C)NC(=O)[C@H](Cc4c[nH]c5ccc(O)cc45)NC(=O)[C@H](CCCCNC(=O)N4CCN(CC(=O)O)CC4)NC(=O)[C@H](Cc4ccc(O)cc4)NC3=O)c2c1 [Compound 44] ({CH2CO}-Y[NMeK]([γGlu-Butanoyl(4-(4-I-phenyl))])VVSN[Trp(5-OMe)]YK([CO-Piperazinyl(4-CH2COOH)])[Trp(5-OH)][Aib]VC-NH2; thioether N-13)
3,2.77 nM,COc1ccc2[nH]cc(C[C@@H]3NC(=O)[C@H](CC(N)=O)NC(=O)[C@H](CO)NC(=O)[C@H](C(C)C)NC(=O)[C@H](C(C)C)NC(=O)[C@H](CCCCNC(=O)CC[C@H](NC(=O)CCCc4ccc(I)cc4)C(=O)O)N(C)C(=O)[C@H](Cc4ccncc4)NC(=O)CSC[C@@H](C(N)=O)NC(=O)[C@H](C(C)C)NC(=O)C(C)(C)NC(=O)[C@H](Cc4c[nH]c5ccc(O)cc45)NC(=O)[C@H](CCCCN)NC(=O)[C@H](Cc4ccc(C(=O)O)cc4)NC3=O)c2c1 [Compound 34] ({CH2CO}-[4Pal][NMeK]([γGlu-Butanoyl(4-(4-I-phenyl))])VVSN[Trp(5-OMe)][Phe(4-COOH)]K[Trp(5-OH)][Aib]VC-NH2; thioether N-13)
